From patent publication US20040235723A1, “Method of screening abc protein promoter/inhibitor” (priority 2001, published 2004) come the findings set out here.

One series has as its system KHW3 + pYI-PDR5. In words: MIC on SD-uracil agar medium, KHW3 + pYI-PDR5. It is filed as cell-based. The settings on record: Saccharomyces cerevisiae, 48 h. How it is done: (§1) A double gene disruption strain KHW2 deficient in PDR5 (Δsyr1/erg3::HIS Δpdr5::LEU2), a double gene disruption strain KHW4 deficient in SNQ2 which is another drug-discharging ABC transporter of yeast (Δpdr5::LEU2 Δsnq2::HIS3) and a triple gene disruption strain […] deficient in PDR5 and SNQ2 (Δsyr1/erg3::HIS3 Δpdr5::LEU2 Δsnq2::HIS3) were prepared from an SYR1/ERG3 gene disruption strain KHW1 of Saccharomyces cerevisiae W303-1A (wild type) (Δsyr1/erg3::HIS3). Preparation of multiple gene disruption strains was carried out in such a manner that a host strain was transformed by a plasmid for disruption of gene where LEU2 gene or […] gene was a marker and the disrupted strain where each drug-resistant gene was disrupted by insertion of LEU2 or HIS3 gene was selected using recovery of requirement of leucine or histidine as an index. Each of the multiple gene disruption strains was confirmed by an increase in sensitivity to cycloheximide and cerulenin while gene disruption of PDR5 and SNQ2 was confirmed by a southern hybridization.

In the next series the test system is W303-1A + pYI. The series can be described thus: MIC on SD-uracil agar medium, wild strain W303-1A + pYI. It is filed as cell-based. The settings on record: Saccharomyces cerevisiae, 48 h.
The subject of a further series is KHW4 + pYI-PDR5. In words: MIC on SD-uracil agar medium, KHW4 + pYI-PDR5. The class given is cell-based. The settings on record: Saccharomyces cerevisiae, 48 h. How it is done: as §1
A further series concerns the target T1, PDR5 transporter (Saccharomyces cerevisiae, UniProt P33302).
T1 construct: expressed in transfected cells; host or cells: Saccharomyces cerevisiae KHW3 (Δsyr1/erg3::HIS3 Δpdr5::LEU2 Δsnq2::HIS3) carrying plasmid pYI-PDR5
The series can be described thus: Agar well diffusion growth inhibition assay for PDR5 transporter inhibition, KHW3+pYI-PDR5. The class given is cell-based. The settings on record: cycloheximide 0.04 μg/ml or cerulenin 0.4 μg/ml, without FK 506. How it is done:
(§2) Yeast cells grown on an SD-uracil medium were suspended in a soft agar dissolved in 4 ml at 50° C. so as to make 1×10^5 cells/ml, mixed after addition of a drug such as cycloheximide or cerulenin if necessary and layered on an SD-uracil medium containing the drug of the same concentration. After the soft agar was solidified, a pore of 8 mm diameter was formed on a part of the soft agar and 50 μl of the test substance were poured thereinto. The plate was incubated at 32° C. for 48 hours and […] of growth inhibition ring around the well was measured whereupon activity of the test substance for inhibiting the discharge of cycloheximide and cerulenin by the PDR transporter was evaluated.
(§3) Unit for the growth inhibition activity was defined as follows. Thus, when a triple gene disruption strain KHW3 (Δsyr1/erg3::HIS3 Δpdr5::LEU2 Δsnq2::HIS3) was used and diameter of the inhibition ring measured by the above agar well diffusion method was plotted to logarithm of cycloheximide concentration where cycloheximide of 8-200 μg/ml was used as a standard substance, it was noted there was a linear relation as shown in FIG. 1. Growth inhibition activity showing an inhibition ring of 20 mm to KHW3 containing pYI was defined as 20 inhibition units per ml (IU/ml) and, using the above-mentioned standard curve of cycloheximide, inhibition units of test substances were calculated. […]
For orientation: In agar diffusion tests the substance spreads into inoculated agar from a disc or well.

In a further series the test system is KHW4 + pYI. The series can be described thus: MIC on SD-uracil agar medium, KHW4 + pYI. It is filed as cell-based. The settings on record: Saccharomyces cerevisiae, 48 h. As for the experimental part: as §1
Another series concerns KHW3 + pYI. The series can be described thus: MIC on SD-uracil agar medium, triple gene disruption strain KHW3 + pYI. The settings on record: for MIC: Saccharomyces cerevisiae, 48 h; for Increase of sensitivity of triple gene disruption strain KHW3 compared with wild strain: ratio of MIC values. The class given is cell-based, Saccharomyces cerevisiae. As for the experimental part: as §1

The test system of the next series is KHW1 + pYI. The series can be described thus: MIC on SD-uracil agar medium, SYR1 gene disruption strain KHW1 + pYI. The class given is cell-based, Saccharomyces cerevisiae. As to conditions: for MIC: Saccharomyces cerevisiae, 48 h; for Increase of sensitivity of SYR1 gene disruption strain (KHW1+pYI) compared with wild strain (W303-1A+pYI): ratio of MIC values. How it is done: as §1

In another series the test system is KHW3+pYI. In words: Agar well diffusion growth inhibition assay, cytotoxicity check on KHW3+pYI. The class given is cell-based, Saccharomyces cerevisiae. As to conditions: FK 506 solution 12.5 μg/ml, 50 μl per well; 32° C., 48 hours; no drug in medium. How it is done: as §2, §3

Where two headings read alike, the source gives them in different places.

T1 sequence (P33302 whole entry): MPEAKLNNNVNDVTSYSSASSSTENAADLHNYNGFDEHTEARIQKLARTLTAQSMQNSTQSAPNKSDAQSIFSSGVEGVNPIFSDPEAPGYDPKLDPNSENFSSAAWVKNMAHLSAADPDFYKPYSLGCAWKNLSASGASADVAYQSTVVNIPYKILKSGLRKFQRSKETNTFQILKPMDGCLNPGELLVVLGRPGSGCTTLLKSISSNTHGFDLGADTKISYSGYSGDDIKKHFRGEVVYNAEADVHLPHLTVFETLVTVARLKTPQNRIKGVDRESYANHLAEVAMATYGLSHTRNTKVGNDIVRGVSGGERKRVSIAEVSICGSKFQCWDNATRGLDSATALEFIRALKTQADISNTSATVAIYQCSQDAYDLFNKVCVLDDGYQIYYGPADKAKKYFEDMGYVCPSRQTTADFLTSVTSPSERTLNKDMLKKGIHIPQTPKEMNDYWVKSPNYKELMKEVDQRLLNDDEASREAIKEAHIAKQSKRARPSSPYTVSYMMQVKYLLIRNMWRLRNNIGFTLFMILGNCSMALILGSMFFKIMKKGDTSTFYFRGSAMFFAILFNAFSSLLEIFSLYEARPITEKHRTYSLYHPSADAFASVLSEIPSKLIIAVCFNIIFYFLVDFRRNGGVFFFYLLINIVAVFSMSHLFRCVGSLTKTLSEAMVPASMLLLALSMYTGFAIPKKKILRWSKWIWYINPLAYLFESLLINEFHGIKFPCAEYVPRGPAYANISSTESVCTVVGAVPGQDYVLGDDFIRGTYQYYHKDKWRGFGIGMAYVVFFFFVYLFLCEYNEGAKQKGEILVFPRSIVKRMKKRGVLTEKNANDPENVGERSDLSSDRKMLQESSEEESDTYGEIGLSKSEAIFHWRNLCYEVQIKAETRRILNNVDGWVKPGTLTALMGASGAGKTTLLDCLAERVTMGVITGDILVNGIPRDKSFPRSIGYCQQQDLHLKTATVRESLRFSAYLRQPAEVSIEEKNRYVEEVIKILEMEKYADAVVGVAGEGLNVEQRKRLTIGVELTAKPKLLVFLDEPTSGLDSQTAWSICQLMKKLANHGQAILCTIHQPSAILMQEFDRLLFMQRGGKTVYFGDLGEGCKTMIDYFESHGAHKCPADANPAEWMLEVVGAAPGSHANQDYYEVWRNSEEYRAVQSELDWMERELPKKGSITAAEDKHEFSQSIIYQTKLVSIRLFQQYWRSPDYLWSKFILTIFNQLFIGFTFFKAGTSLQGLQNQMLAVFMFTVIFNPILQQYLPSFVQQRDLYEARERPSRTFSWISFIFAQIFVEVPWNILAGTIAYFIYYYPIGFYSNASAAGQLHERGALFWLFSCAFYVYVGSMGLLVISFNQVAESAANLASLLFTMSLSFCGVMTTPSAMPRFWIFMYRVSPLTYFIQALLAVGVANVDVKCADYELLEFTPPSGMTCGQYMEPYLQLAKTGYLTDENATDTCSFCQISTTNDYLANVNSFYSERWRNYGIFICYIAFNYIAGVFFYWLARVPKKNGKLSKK

In general, MIC refers to the least concentration at which growth counts as inhibited. In the case of `C[C@@H]1C[C@@H]([C@H](O)CC2CC(=O)NC(=O)C2)C(=O)[C@@H](C)C1` [Cycloheximide, cycloheximide], the minimal inhibitory concentration (MIC) in the series on KHW3 + pYI-PDR5 is 0.16 µg/mL; in the series with W303-1A + pYI it was 0.16 µg/mL; with KHW4 + pYI-PDR5, > 0.32 µg/mL; in the series on KHW4 + pYI, 0.02 µg/mL; in the series on KHW3 + pYI, 0.01 µg/mL; in the series on KHW1 + pYI, 0.04 µg/mL. The “Growth inhibition of KHW3+pYI-PDR5 by sole drug in medium” value at PDR5 transporter was “not inhibited”. Besides, the “Increase of sensitivity of triple gene disruption strain KHW3 compared with wild strain” value with KHW3 + pYI stood at 16 fold. Also, in the series on KHW1 + pYI, the “Increase of sensitivity of SYR1 gene disruption strain (KHW1+pYI) compared with wild strain (W303-1A+pYI)” value was 4 fold.

Consider `C/C=C/C/C=C/CCC(=O)[C@H]1O[C@H]1C(N)=O` [Cerulenin, cerulenin], for which the MIC in the series on KHW3 + pYI-PDR5 (KHW3 + pYI-PDR5, 32° C., two days, read-out: MIC) was 0.8 µg/mL; in the series with W303-1A + pYI (W303-1A + pYI (wild strain), 32° C., two days, read-out: MIC), 0.8 µg/mL; in the series on KHW4 + pYI-PDR5 it was 0.6 µg/mL; with KHW4 + pYI (KHW4 + pYI, 32° C., two days, read-out: MIC), 0.4 µg/mL; in the series on KHW3 + pYI (KHW3 + pYI, 32° C., two days, read-out: MIC), 0.2 µg/mL; in the series with KHW1 + pYI (KHW1 + pYI, 32° C., two days, read-out: MIC) it was 0.4 µg/mL. Also, on PDR5 transporter, the “Growth inhibition of KHW3+pYI-PDR5 by sole drug in medium” value is listed as “not inhibited”. Besides, the “Increase of sensitivity of triple gene disruption strain KHW3 compared with wild strain” value in the series on KHW3 + pYI is 4 fold. Further, in the series on KHW1 + pYI, the “Increase of sensitivity of SYR1 gene disruption strain (KHW1+pYI) compared with wild strain (W303-1A+pYI)” value came to 2 fold.

For `C=CC[C@@H]1/C=C(\C)C[C@H](C)C[C@H](OC)[C@H]2O[C@@](O)(C(=O)C(=O)N3CCCC[C@H]3C(=O)O[C@H](/C(C)=C/[C@@H]3CC[C@@H](O)[C@H](OC)C3)[C@H](C)[C@@H](O)CC1=O)[C@H](C)C[C@@H]2OC` [FK 506], the “Growth inhibition of KHW3+pYI by test substance alone (cytotoxicity)” value in the series with KHW3+pYI is “did not inhibit the growth of KHW3+pYI”.
